{
  "source": "patent US20010031278A1",
  "about": "“Sustained release oxycodone formulations with no fed/fast effect” (priority 1996, published 2001)",
  "origin": "cited, not measured here",
  "conditions": "gastric fluid (pH about 1) vs intestinal fluid (pH about 7.5)",
  "data": [
    {"smiles": "COc1ccc2c3c1O[C@H]1C(=O)CC[C@@]4(O)[C@@H](C2)N(C)CC[C@]314.Cl", "note": "[Oxycodone hydrochloride]", "values": [
      {"measurement": "solubility at low vs high pH", "value": "more soluble in gastric fluid (pH about 1) than in intestinal fluid (pH about 7.5)"}
    ]}
  ]
}
